Reference: patent publication US4661510A, “α-allenic-α-amino acids as enzyme inhibitors” (priority 1985, dated 1987)

Assays:
[1] = target: T1, rat liver ornithine decarboxylase (Rattus norvegicus, UniProt P09057); settings: Metcalf et al 1979; cited from earlier work
T1 construct: host or cells: rat liver
T1 sequence (P09057 1-461): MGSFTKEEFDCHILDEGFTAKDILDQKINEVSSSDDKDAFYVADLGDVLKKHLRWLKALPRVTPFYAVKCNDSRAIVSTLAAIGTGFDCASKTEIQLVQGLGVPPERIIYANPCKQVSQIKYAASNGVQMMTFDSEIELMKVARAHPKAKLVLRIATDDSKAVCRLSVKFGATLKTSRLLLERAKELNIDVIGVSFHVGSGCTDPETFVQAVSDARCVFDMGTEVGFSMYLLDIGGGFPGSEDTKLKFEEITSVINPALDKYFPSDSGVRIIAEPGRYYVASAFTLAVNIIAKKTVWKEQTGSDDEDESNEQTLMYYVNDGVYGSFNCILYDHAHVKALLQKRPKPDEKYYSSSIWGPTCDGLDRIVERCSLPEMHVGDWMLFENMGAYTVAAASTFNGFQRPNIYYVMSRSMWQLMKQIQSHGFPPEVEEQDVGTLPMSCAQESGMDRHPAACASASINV

[2] = target: T2, rat prostate ornithine decarboxylase (Rattus norvegicus, UniProt P09057); settings: Metcalf et al 1979; cited from earlier work
T2 construct: host or cells: rat prostate
T2 sequence (P09057 1-461): T1 sequence (P09057 1-461)

[3] = tested on: Male Sim:(S.D.)fBR rats; assay: In vivo potentiation of L-DOPA induced behaviors; set-up: species or system rat; settings: for Mean Behavior Score at 60 min.: score scale 0-6, before 200 mg/kg L-DOPA i.p.
Experimental: Male Sim:(S.D.)fBR rats weighing 180-335 g were used for these experiments. Groups of 5 rats were individually housed and received water, or various doses of either 2-amino-2-(3-hydroxybenzyl)penta-3,4-dienoic acid or 2-amino-2-(3,4-dihydroxybenzyl)penta-3,4-dienoic acid 30 l minutes before 200 mg/kg of L-DOPA, i.p. Beginning 15 minutes later, behavioral observations were made at 15 minutes intervals for 2 hours. Behavoir was scored as follows:
3=Alert with intermittent sniffing

[4] = target: T3, phenylalanine decarboxylase from Streptococcus faecallis (Enterococcus faecalis, UniProt Q838D6); assay: Time dependent inactivation of phenylalanine decarboxylase; assay type: biochemical; settings: Streptococcus faecallis enzyme
T3 construct: L-phenylalanine substrate, phenylethylamine by GC
T3 sequence (Q838D6 1-620): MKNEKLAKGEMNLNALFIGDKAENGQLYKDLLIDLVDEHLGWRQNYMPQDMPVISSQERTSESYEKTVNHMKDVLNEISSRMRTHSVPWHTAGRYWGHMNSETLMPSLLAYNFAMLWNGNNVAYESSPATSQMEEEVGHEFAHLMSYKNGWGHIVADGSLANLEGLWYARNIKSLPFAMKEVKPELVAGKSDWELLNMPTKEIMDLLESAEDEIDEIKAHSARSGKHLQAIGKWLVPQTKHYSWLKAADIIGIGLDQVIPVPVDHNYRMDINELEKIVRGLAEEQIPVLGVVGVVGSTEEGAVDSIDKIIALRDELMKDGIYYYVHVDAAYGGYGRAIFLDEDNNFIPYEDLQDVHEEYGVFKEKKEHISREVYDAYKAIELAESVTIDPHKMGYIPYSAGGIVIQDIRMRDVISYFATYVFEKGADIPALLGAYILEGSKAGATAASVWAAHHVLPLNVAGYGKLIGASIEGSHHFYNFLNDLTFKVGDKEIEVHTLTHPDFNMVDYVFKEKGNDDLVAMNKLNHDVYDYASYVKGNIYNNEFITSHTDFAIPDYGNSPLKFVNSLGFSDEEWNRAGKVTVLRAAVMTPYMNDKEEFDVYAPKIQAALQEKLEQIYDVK
Description: (§1) Mammalian DOPA decarboxylase was isolated and purified from porcine kidney by the procedure of Borri-Voltatorni et al [Eur. J. Biochem., 93, 181 (1979)] with modifications as introduced by Rudd and Thanassi [Biochemistry, 20, 7469 (1981)]. Bacterial L-phenylalanine and L-tyrosine decarboxylases ex Streptococcus faecallis were purchased from Sigma Chemical Co. as crude extracts and studied without further purification.
(§2) The time dependent inactivation of bacterial aromatic amino acid decarboxylases with 200-1000 micromolar inhibitor, e.g. 2-amino-2-(4-hydroxybenzyl)-penta-3,4-dienoic acid or 2-amino-2-benzylpenta-3,4-dienoic acid, was monitored at pH 5.5 and 37° C. Residual activity of tyrosine decarboxylase ex Streptococcus faecallis was determined by measurement of p-tyramine production at pH 5.5 and 37° C. p-Tyramine was separated by HPLC and quantified by electrochemical oxidation at +0.7 volts.
Residual activity of L-phenylalanine decarboxylase ex Streptococcus faecallis with L-phenylalanine (2 mM) as substrate was meaasured by gas chromatographic analysis of phenylethylamine production. Direct injection of enzymatic reaction mixture (1-5 microliters) onto a standard glass column packed with 10% Apiezon L on Chromosorb 80/100 deactivated with 2% KOH allowed separation of aromatic amine from the reaction mixture. FID detection quantified the rate of product formation.

[5] = target: T4, bacterial tyrosine decarboxylase from Streptococcus faecallis (Enterococcus faecalis, UniProt Q838D6); assay: Time dependent inactivation of tyrosine decarboxylase; assay type: biochemical; settings: Streptococcus faecallis enzyme
T4 construct: purchased from Sigma Chemical Co. as crude extracts; purchased Sigma Chemical Co; host or cells: Streptococcus faecalis, crude extract
T4 sequence (Q838D6 1-620): T3 sequence (Q838D6 1-620)
Description: as §1, §2

[6] = target: T5, mammalian DOPA decarboxylase from porcine kidney (Sus scrofa, UniProt P80041); assay: Time dependent inactivation of DOPA decarboxylase; assay type: biochemical; settings: porcine kidney enzyme
T5 construct: isolated and purified from porcine kidney; from tissue; host or cells: porcine kidney
T5 sequence (P80041 1-486): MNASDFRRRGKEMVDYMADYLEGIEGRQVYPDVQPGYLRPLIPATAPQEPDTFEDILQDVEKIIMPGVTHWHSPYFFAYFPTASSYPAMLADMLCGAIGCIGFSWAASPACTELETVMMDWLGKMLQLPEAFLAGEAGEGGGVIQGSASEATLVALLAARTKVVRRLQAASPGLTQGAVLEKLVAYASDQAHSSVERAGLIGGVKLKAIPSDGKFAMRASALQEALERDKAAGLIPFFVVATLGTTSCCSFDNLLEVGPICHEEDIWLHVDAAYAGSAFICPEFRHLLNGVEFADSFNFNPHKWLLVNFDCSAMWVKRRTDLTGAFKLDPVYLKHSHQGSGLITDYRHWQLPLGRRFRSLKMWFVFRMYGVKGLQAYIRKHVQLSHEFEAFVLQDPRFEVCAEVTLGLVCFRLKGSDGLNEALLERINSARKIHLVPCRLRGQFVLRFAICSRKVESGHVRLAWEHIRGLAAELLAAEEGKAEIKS
Description: as §1
Time dependent inactivation of mammalian DOPA decarboxylase was monitored by incubation of enzyme with 4 to 100 molar equivalent excess of 2-amino-2-(3,4-dihydroxybenzyl)penta-3,4-dienoic acid at pH 6.8 and 37° C. At appropriate time intervals, aliquots of the mixture were withdrawn, diluted 30-fold into excess L-DOPA (2 mM) and residual DOPA decarboxylase activity determined.
DOPA decarboxylase activity was routinely measured by liquid chromatography and electrochemical detection of catecholamine products. DOPA decarboxylase (1-5 micrograms, 1-20 units) was incubated with L-DOPA (2000 micromolar, 150 microliters) and PLP (10 micromolar) in 0.1M phosphate at pH 6.8 and 37° C. After 1-10 minutes, the reaction was quenched with citric acid (2M, 25 microliters), diluted two-fold with distilled water and 10 microliter aliquots were analyzed by HPLC on a reverse phase Brownlee RP-18 column. Isocratic elution with pH 4.35 buffer [0.1M NaOAc ([…]), 0.1M citric acid (32% v/v) and methanol (15% v/v)] at a flow rate of 2.5 ml/min. afforded baseline resolution of dopamine (RT=2.8 min.) from L-DOPA (RT=1.9 min.).
Quantification of dopamine was accomplished by preoxidation of the catechol to the ortho quinone at +0.25 volts in the first analytical electrochemical cell, followed by the selective reduction of ortho quinone in the second analytical cell set at -0.25 volts. This configuration for the ESA electrochemical detector allowed highly sensitive and selective detection of catecholamines (less than 10 picomoles/injection).

[7] = target: bacterial glutamate decarboxylase (Escherichia coli, UniProt P69910); settings: Jung et al 1978; cited from earlier work
Chain of bacterial glutamate decarboxylase (P69910 whole entry): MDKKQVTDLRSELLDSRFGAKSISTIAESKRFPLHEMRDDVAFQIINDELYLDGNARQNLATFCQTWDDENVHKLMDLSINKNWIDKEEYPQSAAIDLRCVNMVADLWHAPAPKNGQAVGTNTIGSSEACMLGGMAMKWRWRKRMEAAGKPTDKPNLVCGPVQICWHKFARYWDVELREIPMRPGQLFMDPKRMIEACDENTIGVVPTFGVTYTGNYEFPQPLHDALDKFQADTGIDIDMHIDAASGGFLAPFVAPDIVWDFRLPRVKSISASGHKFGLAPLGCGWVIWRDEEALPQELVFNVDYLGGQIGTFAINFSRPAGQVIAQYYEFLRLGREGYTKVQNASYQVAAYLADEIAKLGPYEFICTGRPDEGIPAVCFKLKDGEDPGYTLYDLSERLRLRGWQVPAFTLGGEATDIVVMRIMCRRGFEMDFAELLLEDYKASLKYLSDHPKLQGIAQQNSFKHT

[8] = tested on: mammalian glutamate decarboxylase; settings: Jung et al 1978; cited from earlier work
[9] = tested on: rat brain glutamate decarboxylase; settings: Crystal et al 1977; cited from earlier work
[10] = target: T6, aromatic amino acid decarboxylase (Sus scrofa, UniProt P80041); settings: Maycock et al; cited from earlier work
T6 sequence (P80041 1-486): T5 sequence (P80041 1-486)

[11] = target: T7, ornithine decarboxylase (Homo sapiens, UniProt P11926); settings: Relyea and Rando 1975; cited from earlier work
T7 sequence (P11926 1-461): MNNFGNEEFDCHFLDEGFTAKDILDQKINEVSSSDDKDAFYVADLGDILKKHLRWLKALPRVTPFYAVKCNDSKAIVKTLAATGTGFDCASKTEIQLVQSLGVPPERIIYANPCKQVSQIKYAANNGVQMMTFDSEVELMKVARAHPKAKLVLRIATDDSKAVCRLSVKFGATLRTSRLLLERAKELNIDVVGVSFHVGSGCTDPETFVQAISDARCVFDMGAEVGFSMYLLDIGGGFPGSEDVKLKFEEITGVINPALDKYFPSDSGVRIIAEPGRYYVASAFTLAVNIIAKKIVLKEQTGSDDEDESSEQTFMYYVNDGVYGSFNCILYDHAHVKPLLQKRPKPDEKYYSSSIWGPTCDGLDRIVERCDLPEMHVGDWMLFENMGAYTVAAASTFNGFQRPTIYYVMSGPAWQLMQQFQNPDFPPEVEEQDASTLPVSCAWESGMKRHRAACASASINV

| irreversible inactivation of phenylalanine decarboxylase [4] | irreversible inactivation of tyrosine decarboxylase [5] | irreversible inactivation of DOPA decarboxylase [6] | Structure (SMILES) | also measured |
| --- | --- | --- | --- | --- |
|  |  |  | C#CC(N)CCCN (single isomer, unassigned; (-)) [(-)-5-hexyne-1,4-diamine] | inhibition of ornithine decarboxylase [1]: potent time-dependent inhibitor; inhibition of ornithine decarboxylase [2]: potent time-dependent inhibitor |
| irreversible inactivators | irreversible inactivators | irreversible inactivators | CC=C=CC(N)(Cc1cccc(O)c1)C(=O)O (centres unmarked) [2-amino-2-(3-hydroxybenzyl)hexa-3,4-dienoic acid] |  |
| irreversible inactivators | irreversible inactivators | irreversible inactivators | C=C=CC(N)(Cc1ccc(O)cc1)C(=O)O (centres unmarked) [2-amino-2-(4-hydroxybenzyl)penta-3,4-dienoic acid] |  |
| irreversible inactivators | irreversible inactivators | irreversible inactivators | CC=C=CC(N)(Cc1ccccc1)C(=O)O (centres unmarked) [2-amino-2-benzylhexa-3,4-dienoic acid] |  |
| irreversible inactivators | irreversible inactivators | irreversible inactivators | C=C=CC(N)(Cc1ccccc1)C(=O)O (centres unmarked) [2-amino-2-benzylpenta-3,4-dienoic acid] |  |
|  |  |  | C#C[C@H](N)CCC(=O)O [(R) 4-amino-hex-5-ynoic acid] | inhibition of glutamate decarboxylase [7]: inhibit; inhibition of glutamate decarboxylase [8]: inhibit |
|  |  |  | CC(N)(/C=C/C(=O)O)C(=O)O (stereo not drawn) [α-methyl-trans-dehydroglutamic acid] | inhibition of glutamate decarboxylase [9]: irreversibly inhibits |
|  |  |  | C=CC(N)Cc1ccc(O)c(O)c1 (stereo not drawn) [α-vinyl-dopamine] | inactivation of aromatic amino acid decarboxylase [10]: slow-time dependent inactivation |
|  |  |  | NCC=CC(N)C(=O)O (stereo not drawn) [β, γ-dehydroornithine] | inhibition of ornithine decarboxylase [11]: very potent competitive inhibitor |

| Structure (SMILES) | irreversible inactivation of phenylalanine decarboxylase [4] | irreversible inactivation of tyrosine decarboxylase [5] | irreversible inactivation of DOPA decarboxylase [6] | also measured |
| --- | --- | --- | --- | --- |
| C=C=CC(N)(Cc1ccc(O)c(O)c1)C(=O)O (centres unmarked) [2-amino-2-(3,4-dihydroxybenzyl)penta-3,4-dienoic acid] | irreversible inactivators | irreversible inactivators | irreversible inactivators | potentiation of the behaviors induced by L-DOPA ([3]; 30 mg/kg i.p. or s.c., 30 minutes before 200 mg/kg L-DOPA i.p.): active; Mean Behavior Score at 60 min. ([3]; 30 mg/kg i.p.): 4.0; Mean Behavior Score at 60 min. ([3]; 30 mg/kg s.c.): 4.0; potentiation of DOPA behaviors ([3]; 3 to 30 mg/kg i.p. or 30 to 150 mg/kg s.c.): potentiate DOPA behaviors |
